From patent US12410175B2, “Compounds” (INTRA-CELLULAR THERAPIES, INC., priority 2019, dated 2025) come the findings set out here.

One data set addresses T1, PDE1B (Homo sapiens, UniProt Q01064).
T1 construct: recombinant full length human PDEl A and PDE1B; made in house; host or cells: HEK or SF9 cells
Nature of the data set: IMAP phosphodiesterase assay, PDE1B. The data set is classed as biochemical. The following applies: PDE Target PDE1B. The source says:
Measurement of PDEIB Inhibition In Vitro Using IMAP Phosphodiesterase Assay Kit
Phosphodiesterase I B (PDEIB) is a calcium/calmodulin dependent phosphodiesterase enzyme that converts cyclic guanosine monophosphate (cGMP) to 5′-guanosine monophosphate (5′-GMP). PDEIB can also convert a modified cGMP substrate, such as the fluorescent molecule cGMP-fluorescein, to the corresponding GMP-fluorescein. The generation of GMP-fluorescein from cGMP-fluorescein can be quantitated, using, for example, the IMAP (Molecular Devices, Sunnyvale, CA) immobilized-metal affinity particle reagent.
Briefly, the IMAP reagent binds with high affinity to the free 5′-phosphate that is found in GMP-fluorescein and not in cGMP-fluorescein. The resulting GMP-fluorescein-IMAP complex is large relative to cGMP-fluorescein. Small fluorophores that are bound up in a large, slowly tumbling, complex can be distinguished from unbound fluorophores, because the photons emitted as they fluoresce retain the same polarity as the photons used to excite the fluorescence.
In the phosphodiesterase assay, cGMP-fluorescein, which cannot be bound to IMAP, and therefore retains little fluorescence polarization, is converted to GMP-fluorescein, which, when bound to IMAP, yields a large increase in fluorescence polarization (Amp). Inhibition of phosphodiesterase, therefore, is detected as a decrease in Amp.
Materials: All chemicals are available from Sigma-Aldrich (St. Louis, MO) except for IMAP reagents (reaction buffer, binding buffer, FL-GMP and IMAP beads), which are available from Molecular Devices (Sunnyvale, CA). […]
The FL-GMP conversion reaction is initiated by combining 4 parts enzyme and inhibitor mix with 1 part substrate solution (0.225 μM) in a 384-well microtiter plate. […] The plate is incubated at room temperature for 1 hour to allow IMAP binding to proceed to completion, and then placed in an Envision multimode microplate reader (PerkinElmer, Shelton, CT) to measure the fluorescence polarization (Amp).
A decrease in GMP concentration, measured as decreased Amp, is indicative of inhibition of PDE activity.

A further data set concerns the target r-bovine PDE5 (Bos taurus, UniProt Q28156). Nature of the data set: PDE selectivity assay, r-bovine PDE5. Type of data set: biochemical. The following applies: PDE Target r-bovine PDE5.
The target in another data set is hPDE3B (Homo sapiens, UniProt Q13370). Nature of the data set: PDE selectivity assay, hPDE3B. The following applies: PDE Target hPDE3B. Type of data set: biochemical.
For a further data set, the target named is hPDE11 (Homo sapiens, UniProt Q9HCR9). The data set is described as follows: PDE selectivity assay, hPDE11. The data set is classed as biochemical. The following applies: PDE Target hPDE11.
For a further data set, the target named is hPDE8A (Homo sapiens, UniProt O60658). Nature of the data set: PDE selectivity assay, hPDE8A. The data set is classed as biochemical. Conditions: PDE Target hPDE8A.
A further data set concerns the target hPDE7B (Homo sapiens, UniProt Q9NP56). Nature of the data set: PDE selectivity assay, hPDE7B. The data set is classed as biochemical. The following applies: PDE Target hPDE7B.
In a further data set the target is T2, PDE1A (Homo sapiens, UniProt P54750).
T2 construct: recombinant full length human PDEl A and PDE1B; made in house; host or cells: HEK or SF9 cells
Nature of the data set: IMAP phosphodiesterase assay, PDE1A. The following applies: PDE Target PDE1A. Type of data set: biochemical.

A further data set has as its target hPDE2A (Homo sapiens, UniProt O00408). Nature of the data set: PDE selectivity assay, hPDE2A. Conditions: PDE Target hPDE2A. The data set is classed as biochemical.
In the next data set the target is hPDE9A (Homo sapiens, UniProt O76083). Nature of the data set: PDE selectivity assay, hPDE9A. The data set is classed as biochemical. The following applies: PDE Target hPDE9A.
The target in a further data set is hPDE4A1A (Homo sapiens, UniProt P27815). The data set is described as follows: PDE selectivity assay, hPDE4A1A. The data set is classed as biochemical. Conditions: PDE Target hPDE4A1A.
In a further data set the target is hPDE10A (Homo sapiens, UniProt Q9Y233). Nature of the data set: PDE selectivity assay, hPDE10A. The data set is classed as biochemical. The following applies: PDE Target hPDE10A.
The target of another data set is T3, bovine PDE6 (Bos taurus, UniProt P11541+P23439).
T3 sequence (P11541 2-856 limits assumed): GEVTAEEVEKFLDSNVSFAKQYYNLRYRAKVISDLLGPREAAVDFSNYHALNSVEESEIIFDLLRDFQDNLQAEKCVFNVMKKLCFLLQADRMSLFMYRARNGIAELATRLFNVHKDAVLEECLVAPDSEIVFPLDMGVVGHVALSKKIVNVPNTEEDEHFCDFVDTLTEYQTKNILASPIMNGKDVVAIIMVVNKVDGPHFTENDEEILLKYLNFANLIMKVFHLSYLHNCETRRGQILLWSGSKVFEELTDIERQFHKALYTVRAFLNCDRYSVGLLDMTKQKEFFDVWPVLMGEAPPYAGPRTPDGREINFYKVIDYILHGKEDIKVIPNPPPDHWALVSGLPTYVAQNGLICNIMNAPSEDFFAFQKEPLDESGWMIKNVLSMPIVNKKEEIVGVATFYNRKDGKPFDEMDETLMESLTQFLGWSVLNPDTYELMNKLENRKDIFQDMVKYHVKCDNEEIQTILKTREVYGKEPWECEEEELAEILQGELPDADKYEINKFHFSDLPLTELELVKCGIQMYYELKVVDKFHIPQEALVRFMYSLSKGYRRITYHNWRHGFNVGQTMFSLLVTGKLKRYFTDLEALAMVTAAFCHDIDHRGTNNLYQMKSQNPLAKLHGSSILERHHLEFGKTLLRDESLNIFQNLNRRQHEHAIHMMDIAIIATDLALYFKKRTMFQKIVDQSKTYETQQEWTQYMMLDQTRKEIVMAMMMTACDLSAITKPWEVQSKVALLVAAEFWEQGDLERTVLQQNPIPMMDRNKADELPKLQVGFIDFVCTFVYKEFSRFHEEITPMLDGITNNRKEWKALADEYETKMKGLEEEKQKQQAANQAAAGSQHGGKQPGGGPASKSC
T3 sequence (P23439 2-850 limits assumed): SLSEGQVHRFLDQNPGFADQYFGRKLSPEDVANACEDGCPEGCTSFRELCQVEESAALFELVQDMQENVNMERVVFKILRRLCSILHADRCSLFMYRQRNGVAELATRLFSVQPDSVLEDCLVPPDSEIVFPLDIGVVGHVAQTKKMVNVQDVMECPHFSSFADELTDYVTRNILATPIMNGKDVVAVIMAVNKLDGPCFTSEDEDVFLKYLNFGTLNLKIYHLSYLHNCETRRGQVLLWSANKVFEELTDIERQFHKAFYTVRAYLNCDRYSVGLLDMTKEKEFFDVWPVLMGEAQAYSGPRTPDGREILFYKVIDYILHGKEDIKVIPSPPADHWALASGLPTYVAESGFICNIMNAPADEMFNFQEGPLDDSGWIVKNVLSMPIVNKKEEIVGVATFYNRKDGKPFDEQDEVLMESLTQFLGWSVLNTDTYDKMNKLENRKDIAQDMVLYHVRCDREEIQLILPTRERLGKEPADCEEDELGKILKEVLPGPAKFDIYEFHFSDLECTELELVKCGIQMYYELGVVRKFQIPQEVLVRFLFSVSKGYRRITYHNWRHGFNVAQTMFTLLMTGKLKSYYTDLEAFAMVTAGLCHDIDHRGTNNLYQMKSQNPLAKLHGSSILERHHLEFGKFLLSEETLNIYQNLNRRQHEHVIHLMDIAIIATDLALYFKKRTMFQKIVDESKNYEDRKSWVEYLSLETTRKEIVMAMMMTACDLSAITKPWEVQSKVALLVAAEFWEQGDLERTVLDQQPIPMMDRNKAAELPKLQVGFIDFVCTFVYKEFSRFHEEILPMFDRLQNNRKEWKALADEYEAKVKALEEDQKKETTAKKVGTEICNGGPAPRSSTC
Nature of the data set: PDE selectivity assay, bovine PDE6. Type of data set: biochemical. The following applies: PDE Target bovine PDE6.

Another data set concerns the target PDE1C (Homo sapiens, UniProt Q14123). Nature of the data set: IMAP phosphodiesterase assay, PDE1C. The data set is classed as biochemical. Conditions: PDE Target PDE1C.
Data set [1] can be described thus: Circulating metabolites in human plasma after oral administration of Compound 1. Type of data set: in vivo. The following applies: after oral administration of Compound 1 (parent).

hPDE3B, sequence (Q13370 whole entry): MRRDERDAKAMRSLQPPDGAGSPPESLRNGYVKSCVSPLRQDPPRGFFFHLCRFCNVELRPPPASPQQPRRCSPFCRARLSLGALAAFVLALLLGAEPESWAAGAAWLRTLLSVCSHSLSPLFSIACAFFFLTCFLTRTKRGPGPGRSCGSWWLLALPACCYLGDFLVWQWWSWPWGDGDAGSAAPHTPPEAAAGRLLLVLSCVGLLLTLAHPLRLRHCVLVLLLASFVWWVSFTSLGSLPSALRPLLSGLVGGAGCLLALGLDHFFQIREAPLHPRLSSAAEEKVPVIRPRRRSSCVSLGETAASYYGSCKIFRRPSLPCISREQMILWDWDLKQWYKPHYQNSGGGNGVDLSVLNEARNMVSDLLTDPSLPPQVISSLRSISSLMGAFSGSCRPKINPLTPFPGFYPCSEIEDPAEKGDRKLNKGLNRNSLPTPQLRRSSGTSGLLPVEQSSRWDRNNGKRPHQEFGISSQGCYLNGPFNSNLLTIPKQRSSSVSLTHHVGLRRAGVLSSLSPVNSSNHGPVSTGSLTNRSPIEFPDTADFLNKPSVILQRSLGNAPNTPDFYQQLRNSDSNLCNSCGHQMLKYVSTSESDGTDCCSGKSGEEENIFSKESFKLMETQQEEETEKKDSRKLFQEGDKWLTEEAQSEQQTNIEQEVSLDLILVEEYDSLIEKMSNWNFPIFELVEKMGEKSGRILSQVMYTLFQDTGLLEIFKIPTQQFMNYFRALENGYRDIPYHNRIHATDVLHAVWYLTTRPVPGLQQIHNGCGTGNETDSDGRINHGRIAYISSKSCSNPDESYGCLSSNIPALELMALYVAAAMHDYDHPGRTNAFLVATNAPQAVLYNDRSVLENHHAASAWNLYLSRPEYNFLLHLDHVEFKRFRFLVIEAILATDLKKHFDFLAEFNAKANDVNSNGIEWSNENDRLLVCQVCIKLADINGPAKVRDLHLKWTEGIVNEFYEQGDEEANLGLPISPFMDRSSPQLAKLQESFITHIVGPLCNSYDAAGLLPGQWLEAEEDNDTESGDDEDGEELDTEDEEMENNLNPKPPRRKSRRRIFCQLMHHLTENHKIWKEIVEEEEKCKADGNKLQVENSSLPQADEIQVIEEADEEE
hPDE9A, sequence (O76083 whole entry): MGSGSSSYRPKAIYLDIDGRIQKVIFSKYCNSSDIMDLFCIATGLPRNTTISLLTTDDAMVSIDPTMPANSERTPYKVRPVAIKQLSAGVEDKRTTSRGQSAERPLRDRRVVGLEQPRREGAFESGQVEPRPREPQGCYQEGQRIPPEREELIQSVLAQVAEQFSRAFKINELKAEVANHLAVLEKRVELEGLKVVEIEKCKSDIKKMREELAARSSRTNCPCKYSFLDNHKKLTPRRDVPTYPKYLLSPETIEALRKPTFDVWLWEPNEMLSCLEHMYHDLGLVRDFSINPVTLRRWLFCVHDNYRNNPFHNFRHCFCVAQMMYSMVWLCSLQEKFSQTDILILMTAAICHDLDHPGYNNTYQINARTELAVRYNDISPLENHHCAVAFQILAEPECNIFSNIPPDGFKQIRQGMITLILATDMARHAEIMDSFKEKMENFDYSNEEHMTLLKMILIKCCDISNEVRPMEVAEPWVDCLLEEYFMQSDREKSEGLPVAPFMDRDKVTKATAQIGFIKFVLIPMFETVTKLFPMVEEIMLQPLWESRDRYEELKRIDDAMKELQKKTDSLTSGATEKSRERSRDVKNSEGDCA
hPDE7B, sequence (Q9NP56 whole entry): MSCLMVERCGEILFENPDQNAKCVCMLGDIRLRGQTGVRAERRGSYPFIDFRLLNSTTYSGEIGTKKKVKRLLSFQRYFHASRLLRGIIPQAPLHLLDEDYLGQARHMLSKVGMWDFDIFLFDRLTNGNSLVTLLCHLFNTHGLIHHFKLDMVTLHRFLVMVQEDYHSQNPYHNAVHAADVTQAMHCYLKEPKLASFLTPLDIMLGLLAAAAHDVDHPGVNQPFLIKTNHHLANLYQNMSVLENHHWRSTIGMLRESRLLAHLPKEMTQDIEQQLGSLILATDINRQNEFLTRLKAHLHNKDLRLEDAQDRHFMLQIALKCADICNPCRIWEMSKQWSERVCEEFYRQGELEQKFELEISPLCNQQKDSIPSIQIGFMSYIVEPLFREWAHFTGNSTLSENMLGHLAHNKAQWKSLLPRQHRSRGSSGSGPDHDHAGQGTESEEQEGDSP
hPDE10A, sequence (Q9Y233 whole entry): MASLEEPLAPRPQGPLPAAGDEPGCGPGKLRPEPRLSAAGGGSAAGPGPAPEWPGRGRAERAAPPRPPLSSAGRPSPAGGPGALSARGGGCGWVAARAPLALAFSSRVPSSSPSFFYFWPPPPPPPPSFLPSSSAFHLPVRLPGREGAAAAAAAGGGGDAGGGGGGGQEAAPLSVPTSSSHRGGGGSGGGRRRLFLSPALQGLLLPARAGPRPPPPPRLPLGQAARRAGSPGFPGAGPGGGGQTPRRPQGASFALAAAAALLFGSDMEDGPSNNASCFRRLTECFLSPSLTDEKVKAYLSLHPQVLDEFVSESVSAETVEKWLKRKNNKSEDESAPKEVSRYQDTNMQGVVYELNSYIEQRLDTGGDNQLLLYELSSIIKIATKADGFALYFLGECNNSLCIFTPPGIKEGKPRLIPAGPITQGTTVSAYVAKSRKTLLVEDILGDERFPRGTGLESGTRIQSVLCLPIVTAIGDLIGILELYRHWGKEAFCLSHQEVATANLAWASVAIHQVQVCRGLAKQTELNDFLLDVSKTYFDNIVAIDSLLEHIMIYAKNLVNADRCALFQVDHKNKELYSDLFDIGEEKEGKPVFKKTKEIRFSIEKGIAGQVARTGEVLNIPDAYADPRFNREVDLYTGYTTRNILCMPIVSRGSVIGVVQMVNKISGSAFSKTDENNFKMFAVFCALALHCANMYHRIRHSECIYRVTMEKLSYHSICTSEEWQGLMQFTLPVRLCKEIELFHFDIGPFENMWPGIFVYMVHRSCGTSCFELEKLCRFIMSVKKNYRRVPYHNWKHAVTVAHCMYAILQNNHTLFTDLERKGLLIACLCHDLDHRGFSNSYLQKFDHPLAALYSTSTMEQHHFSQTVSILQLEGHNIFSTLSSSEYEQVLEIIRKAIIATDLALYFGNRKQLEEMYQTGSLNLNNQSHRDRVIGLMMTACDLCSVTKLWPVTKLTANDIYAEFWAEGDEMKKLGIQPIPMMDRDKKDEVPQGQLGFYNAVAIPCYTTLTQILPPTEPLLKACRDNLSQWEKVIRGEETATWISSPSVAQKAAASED
hPDE4A1A, sequence (P27815 1-647 isoform P27815-4): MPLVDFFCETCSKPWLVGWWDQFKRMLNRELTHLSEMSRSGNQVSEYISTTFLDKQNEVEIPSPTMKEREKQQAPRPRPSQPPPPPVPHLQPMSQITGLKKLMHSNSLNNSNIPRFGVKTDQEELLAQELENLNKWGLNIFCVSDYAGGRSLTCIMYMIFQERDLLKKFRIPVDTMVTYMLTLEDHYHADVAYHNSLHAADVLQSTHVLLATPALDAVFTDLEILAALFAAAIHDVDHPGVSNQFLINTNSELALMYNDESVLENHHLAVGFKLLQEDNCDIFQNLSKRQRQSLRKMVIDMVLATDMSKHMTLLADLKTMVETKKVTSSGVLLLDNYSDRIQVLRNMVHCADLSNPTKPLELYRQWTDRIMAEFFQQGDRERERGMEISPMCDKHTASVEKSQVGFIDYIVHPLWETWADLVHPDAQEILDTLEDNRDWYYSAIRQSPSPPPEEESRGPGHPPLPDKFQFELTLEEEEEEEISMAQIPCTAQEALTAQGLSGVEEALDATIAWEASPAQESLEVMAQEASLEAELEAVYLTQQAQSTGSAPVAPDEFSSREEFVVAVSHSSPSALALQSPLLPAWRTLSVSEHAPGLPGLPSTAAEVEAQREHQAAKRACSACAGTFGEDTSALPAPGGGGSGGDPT
hPDE11, sequence (Q9HCR9 whole entry): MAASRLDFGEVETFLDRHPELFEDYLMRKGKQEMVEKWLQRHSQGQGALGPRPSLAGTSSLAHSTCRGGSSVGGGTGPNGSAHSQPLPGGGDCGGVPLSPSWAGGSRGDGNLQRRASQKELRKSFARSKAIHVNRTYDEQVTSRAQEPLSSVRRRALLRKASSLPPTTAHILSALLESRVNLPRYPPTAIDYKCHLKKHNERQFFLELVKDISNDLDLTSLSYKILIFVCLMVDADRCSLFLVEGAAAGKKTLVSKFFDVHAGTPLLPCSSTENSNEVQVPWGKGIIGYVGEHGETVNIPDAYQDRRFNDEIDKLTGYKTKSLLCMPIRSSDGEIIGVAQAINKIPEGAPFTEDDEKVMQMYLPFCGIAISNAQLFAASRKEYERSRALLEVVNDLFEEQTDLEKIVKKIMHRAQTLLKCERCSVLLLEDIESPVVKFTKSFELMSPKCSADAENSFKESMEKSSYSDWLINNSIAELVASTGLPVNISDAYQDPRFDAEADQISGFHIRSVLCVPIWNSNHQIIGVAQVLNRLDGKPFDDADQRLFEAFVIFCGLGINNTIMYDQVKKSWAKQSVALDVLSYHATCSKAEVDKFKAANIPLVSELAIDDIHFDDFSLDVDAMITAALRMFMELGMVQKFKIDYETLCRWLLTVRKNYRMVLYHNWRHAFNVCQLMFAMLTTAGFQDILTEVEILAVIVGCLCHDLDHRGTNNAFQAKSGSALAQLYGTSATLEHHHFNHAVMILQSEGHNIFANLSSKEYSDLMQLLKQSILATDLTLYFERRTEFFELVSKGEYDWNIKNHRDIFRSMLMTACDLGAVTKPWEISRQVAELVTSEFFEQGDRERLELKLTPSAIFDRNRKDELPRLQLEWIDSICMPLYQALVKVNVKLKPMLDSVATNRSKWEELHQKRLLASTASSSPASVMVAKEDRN

For orientation: IC50 means the concentration needed to halve the response being measured. Higher therefore signals a need for much substance. Regarding `CN1C(=O)c2c(nn(Cc3ccc(-c4cccc(F)n4)cc3)c2Nc2ccccc2)N2C1=N[C@]1(O)CCC[C@H]21` [Compound 2], the IC50 is 0.015 nM against PDE1B; 3.1 nM against r-bovine PDE5; ~10000 nM against hPDE3B; 454 nM against hPDE11; 418 nM at hPDE8A; 118 nM against hPDE7B. Also, the 50% inhibitory concentration (IC50) on PDE1A was 0.042 nM; on hPDE2A it was ~10000 nM; on hPDE9A it was > 10000 nM; at hPDE4A1A, 22 nM; on hPDE10A, > 10000 nM; at bovine PDE6, 34 nM. For the same compound, the midpoint of inhibition against PDE1C, the IC50, lay at 0.042 nM.
`CN1C(=O)c2c(nn(Cc3ccc(-c4cccc(F)n4)cc3)c2Nc2ccc(O)cc2)N2C1=N[C@@H]1CCC[C@@H]12` [Compound 1]: the IC50 was 29 nM against PDE1B; 2480 nM against r-bovine PDE5; 49700 nM against hPDE3B; 5440 nM against hPDE11; 4170 nM at hPDE8A; 6610 nM on hPDE7B. Further, the half-maximal inhibitory concentration (IC50) on PDE1A is 1.3 nM; against hPDE2A, > 100000 nM; against hPDE9A, > 100000 nM; on hPDE4A1A it was 3660 nM; against hPDE10A, > 100000 nM; against bovine PDE6, 4340 nM. For the same compound, at PDE1C, the IC50 is 1.3 nM.
Regarding `CN1C(=O)c2c(nn(Cc3ccc(-c4cccc(F)n4)cc3)c2Nc2ccc(O)cc2)N2C1=N[C@]1(O)CCC[C@H]21` [Compound 3], the concentration for half-maximal inhibition (IC50) is 1.4 nM against PDE1B; 156 nM against r-bovine PDE5; 20900 nM against hPDE3B; 396 nM against hPDE11; 3420 nM on hPDE8A; 1240 nM against hPDE7B. For the same compound, the IC50 at PDE1A is 6.3 nM; against hPDE2A, 73400 nM; against hPDE9A it was > 100000 nM; on hPDE4A1A, 840 nM; against hPDE10A it was 67400 nM; on bovine PDE6, 294 nM. Further, half-maximal inhibition against PDE1C (IC50) required 5.4 nM.
As for `CN1C(=O)c2c(nn(Cc3ccc(-c4cccc(F)n4)cc3)c2Nc2ccccc2)N2C1=N[C@]1(O)CCC[C@H]21` [M-I], the “share of the total circulating drug related materials in human plasma” value in [1] was 84%.
